Results on 23 molecules are retold here after patent US7504403B2, “Substituted heterocyclic compounds and methods of use” (Amgen Inc., priority 2004, dated 2009).

Bounds are passed on as bounds.

For this experiment, the system named is LPS induced TNF release. The experiment is described as follows: Lipopolysaccharide-Activated THP1 Cell TNF Production Assay. It counts as cell-based. The following applies: Homo sapiens, THP-1. As for the experimental part: Lipopolysaccharide-Activated THP1 Cell TNF Production Assay
THP1 cells are resuspended in fresh THP1 media (RPMI 1640, 10% heat-inactivated FBS, 1×PGS, 1×NEAA, plus 30 μM βME) at a concentration of 1E6/mL. One hundred microliters of cells per well are plated in a polystyrene 96-well tissue culture. One microgram per mL of bacterial LPS is prepared in THP1 media and is transferred to the wells. Test compounds are dissolved in 100% DMSO and are serially diluted 3 fold in a polypropylene 96-well microtiter plate (drug plate). HI control and LO control wells contain only DMSO. One microliter of test compound from the drug plate followed by 10 μL of LPS are transferred to the cell plate. The treated cells are induced to synthesize and secrete TNF-α at 37° C. for 3 h. Forty microliters of conditioned media are transferred to a 96-well polypropylene plate containing 110 μL of ECL buffer (50 mM Tris-HCl pH 8.0, 100 mM NaCl, 0.05% Tween 20, 0.05% NaN3 and 1%FBS) supplemented with 0.44 nM MAB610 monoclonal Ab (R&D Systems), 0.34 nM ruthenylated AF210NA polyclonal Ab (R&D Systems) and 44 μg/mL sheep anti-mouse M280 Dynabeads (Dynal). After a 2 h incubation at room temperature with shaking, the reaction is read on the ECL M8 Instrument (IGEN Inc.). A low voltage is applied to the ruthenylated TNF-α immune complexes, which in the presence of TPA (the active component in Origlo), results in a cyclical redox reaction generating light at […]. The amount of secreted TNF-α in the presence of compound compared with that in the presence of DMSO vehicle alone (HI control) is calculated using the formula: % control (POC)=(cpd−average LO)/(average HI−average LO)*100. Data (consisting of POC and inhibitor concentration in μM) is fitted to a 4-parameter equation (y=A+((B−A)/(1+((x/C)^D))), where A is the minimum y (POC) value, B is the maximum y (POC), C is the x (cpd concentration) at the point of inflection and D is the slope factor) using a Levenburg-Marquardt non-linear regression algorithm.
One may read the IC50 as the concentration needed to halve the response being measured. Low readings indicate higher potency, high ones lower potency. For the molecule `CCOC(=O)CCC1CN(c2ccnc(NCCc3ccccc3)n2)c2nc(-c3ccccc3)cc(=O)n2C1` (centres unmarked) [Example 54, 3-[6-oxo-1-(2-phenethylamino-pyrimidin-4-yl)-8-phenyl-1,3,4,6-tetrahydro-2H-pyrimido[1,2-a]pyrimidin-3-yl]-propionic acid ethyl ester], the IC50 is no more than 20 µM. With `O=C(O)CCC1CN(c2ccnc(NCCc3ccccc3)n2)c2nc(-c3ccccc3)cc(=O)n2C1` (centres unmarked) [Example 55, 3-[6-Oxo-1-(2-phenethylamino-pyrimidin-4-yl)-8-phenyl-1,3,4,6-tetrahydro-2H-pyrimido[1,2-a]pyrimidin-3-yl]-propionic acid], the IC50 is no more than 20 µM. Turning to `CC(C)NC(C)c1ccc(CCNc2nccc(N3CCC(=O)N4CC=C(c5ccccc5)N=C43)n2)cc1` (centres unmarked) [Example 62, 1-(2-{2[4-(1-Isopropylamino-ethyl)-phenyl]-ethylamino}-pyrimidin-4-yl)-8-phenyl-1,2,3,6-tetrahydro-pyrimido[1,2-a]pyrimidin-4-one], the IC50 was no more than 20 µM.

The molecule `CC(Cc1ccc(CN)cc1)Nc1nccc(N2CCC(=O)N3CC=C(c4ccccc4)N=C32)n1` (centres unmarked) [Example 63, 1-{2-[2-(4-Aminomethyl-phenyl)-1-methyl-ethylamino]-pyrimidin-4-yl}-8-phenyl-1,2,3,6-tetrahydro-pyrimido[1,2-a]pyrimidin-4-one] had an IC50 of no more than 20 µM.

`CC(N)Cc1ccc(CC(C)Nc2nccc(N3CCC(=O)N4CC=C(c5ccccc5)N=C43)n2)cc1` (centres unmarked) [Example 64, 1-(2-{2-[4-(2-Amino-propyl)-phenyl]-1-methyl-ethylamino}-pyrimidin-4-yl)-8-phenyl-1,2,3,6-tetrahydro-pyrimido[1,2-a]pyrimidin-4-one] displayed an IC50 of no more than 20 µM. Then `CC(Cc1cccc(C(C)(C)N)c1)Nc1nccc(N2CCC(=O)N3CC=C(c4ccccc4)N=C32)n1` (centres unmarked) [Example 65, 1-(2-{2-[3-(1-Amino-1-methyl-ethyl)-phenyl]-1-methyl-ethylamino}-pyrimidin-4-yl)-8-phenyl-1,2,3,6-tetrahydro-pyrimido[1,2-a]pyrimidin-4-one], with no more than 20 µM; and `CC(Nc1nccc(N2CC(O)Cn3c2nc(-c2ccccc2)cc3=O)n1)c1ccccc1` (centres unmarked) [Example 66, 7-Hydroxy-2-phenyl-9-[2-(1-phenyl-ethylamino)-pyrimidin-4-yl]-6,7,8,9-tetrahydro-pyrimido[1,2-a]pyrimidin-4-one], with no more than 20 µM; and `O=c1cc(-c2ccccc2)cc2n1CCCN2c1ccnc(NCCc2ccccc2)n1` [Example 74, 1-(2-Phenethylamino-pyrimidin-4-yl)-8-phenyl-1,2,3,4-tetrahydro-pyrido[1,2-a]pyrimidin-6-one], with no more than 20 µM. Molecule `O=c1cc(-c2ccccc2)cc2n1CCCN2c1ccnc(NCCc2ccccc2Cl)n1` [Example 75, 1-{2-[2-(2-Chloro-phenyl)-ethylamino]-pyrimidin-4-yl}-8-phenyl-1,2,3,4-tetrahydro-pyrido[1,2-a]pyrimidin-6-one] registered an IC50 of no more than 20 µM. Then `O=c1cc(-c2ccccc2)cc2n1CCCN2c1ccnc(NCCc2c(Cl)cccc2Cl)n1` [Example 76, 1-{2-[2-(2,6-Dichloro-phenyl)-ethylamino]-pyrimidin-4-yl}-8-phenyl-1,2,3,4-tetrahydro-pyrido[1,2-a]pyrimidin-6-one], with no more than 20 µM; and `O=c1cc(-c2ccccc2)cc2n1CCCN2c1ccnc(NCCc2ccc(Cl)cc2Cl)n1` [Example 77, 1-{2-[2-(2,4-Dichloro-phenyl)-ethylamino]-pyrimidin-4-yl}-8-phenyl-1,2,3,4-tetrahydro-pyrido[1,2-a]pyrimidin-6-one], with no more than 20 µM. `C[C@H](Nc1nccc(N2CCCn3c2cc(-c2ccccc2)cc3=O)n1)c1ccccc1` [Example 78] came in with an IC50 of no more than 20 µM. Then `C[C@H](CNc1nccc(N2CCCn3c2cc(-c2ccccc2)cc3=O)n1)c1ccccc1` [Example 79], with no more than 20 µM; and `COc1ccc([C@H](C)Nc2nccc(N3CCCn4c3cc(-c3ccccc3)cc4=O)n2)cc1` [Example 80, 1-{2-[(1S)-(4-Methoxy-phenyl)-ethylamino]-pyrimidin-4-yl}-8-phenyl-1,2,3,4-tetrahydro-pyrido[1,2-a]pyrimidin-6-one], with no more than 20 µM; and `C[C@H](Nc1nccc(N2CCCn3c2cc(-c2ccccc2)cc3=O)n1)c1cccc(Br)c1` [Example 81, 1-{2-(S)-[1-(3-Bromo-phenyl)-ethylamino]-pyrimidin-4-yl}-8-phenyl-1,2,3,4-tetrahydro-pyrido[1,2-a]pyrimidin-6-one], with no more than 20 µM.

Molecule `C[C@H](Nc1nccc(N2CCCn3c2cc(-c2ccccc2)cc3=O)n1)c1cccc(N2CCNCC2)c1` [Example 82, 8-Phenyl-1-{2-(S)-[1-(3-piperazin-1-yl-phenyl) -ethylamino]-pyrimidin-4-yl}-1,2,3,4-tetrahydro-pyrido[1,2-a]pyrimidin-6-one] gave an IC50 of no more than 20 µM. `CC(Cc1cccc(CO)c1)Nc1nccc(N2CCCn3c2cc(-c2ccccc2)cc3=O)n1` (centres unmarked) [Example 83, 1-{2-[2-(3-Hydroxymethyl-phenyl)-1-methyl-ethylamino]-pyrimidin-4-yl}-8-phenyl-1,2,3,4-tetrahydro-pyrido[1,2-a]pyrimidin-6-one] had an IC50 of no more than 20 µM. For `CC(Cc1cccc(CN)c1)Nc1nccc(N2CCCn3c2cc(-c2ccccc2)cc3=O)n1` (centres unmarked) [Example 84, 1-{2-[2-(3-Aminomethyl-phenyl)-1-methyl-ethylamino]-pyrimidin-4-yl}-8-phenyl-1,2,3,4-tetrahydro-pyrido[1,2-a]pyrimidin-6-one] the value was no more than 20 µM. For `O=c1cc(-c2ccccc2)cc2n1CCCN2c1cc(NCCc2ccccc2)ncn1` [Example 85, 1-(6-Phenethylamino-pyrimidin-4-yl)-8-phenyl-1,2,3,4-tetrahydro-pyrido[1,2-a]pyrimidin-6-one] the value was no more than 20 µM; for `O=c1cc(-c2ccccc2)cc2n1CCCN2c1cc(NCCc2ccccc2Cl)ncn1` [Example 86, 1-{6-[2-(2-Chloro-phenyl)-ethylamino]-pyrimidin-4-yl}-8-phenyl-1,2,3,4-tetrahydro-pyrido[1,2-a]pyrimidin-6-one], no more than 20 µM. For `O=c1cc(-c2ccccc2)cc2n1CCN2c1ccnc(NCCc2ccccc2)n1` [Example 87, 1-(2-Phenethylamino-pyrimidin-4-yl)-7-phenyl-2,3-dihydro-1H-imidazo[1,2-a]pyridin-5-one], the IC50 was no more than 20 µM. For `CC(Cc1cccc(CO)c1)Nc1nccc(N2CCn3c2cc(-c2ccccc2)cc3=O)n1` (centres unmarked) [Example 88, 1-{2-[2-(3-Hydroxymethyl-phenyl)-1-methyl-ethylamino]-pyrimidin-4-yl}-7-phenyl-2,3-dihydro-1H-imidazo[1,2-a]pyridin-5-one] the value was no more than 20 µM. The molecule `O=c1cc(-c2ccccc2)cc2n1CCN2c1cncc(NCCc2ccccc2)n1` [Example 89, 1-(6-Phenethylamino-pyrazin-2-yl)-7-phenyl-2,3-dihydro-1H-imidazo[1,2-a]pyridin-5-one] returned an IC50 of no more than 20 µM.
